This assay relates to HCV 1b_Huh-Luc/Neo-ET cell line persistently expressing a bicistronic genotype 1b replicon in Huh 7 cells. Put plainly: HCV replicon assay (luciferase readout). Particulars: Hepatitis C virus, Huh-7, 72 h, read-out: Inhibition of HCV genotype 1b. It counts as cell-based. A digest of the protocol:
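Huh 7 cells carrying a genotype 1b luciferase/neo replicon treated in triplicate for 72 h, then luciferase activity measured. Signal expressed as % of control; EC50 from four-parameter logistic fit, determined several times.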

Molecules are shown by their SMILES.

Turning to `COC(=O)N[C@H](C(=O)N1CCC[C@H]1c1ncc(-c2ccc(C#Cc3ccc(-c4cnc([C@@H]5CCCN5C(=O)[C@@H](C(C)C)N(C)C)[nH]4)cc3)cc2)[nH]1)C(C)C` [Compound 954], the EC50 lay within 1 to 9.9 nM.

In the case of `COC(=O)N[C@@H](C(=O)N1CCC[C@H]1c1ncc(-c2ccc(C#Cc3ccc(-c4cnc([C@@H]5CCCN5C(=O)[C@H](NC(=O)OC)[C@H](C)OC)[nH]4)cc3)cc2)[nH]1)[C@H](C)OC` [Compound 977], the EC50 fell in the range of 10 to 999 nM.

With `COC(=O)N[C@H](C(=O)N1CCC[C@H]1c1ncc(-c2ccc(C#Cc3ccc(-c4cnc([C@H](C)NC(=O)[C@@H](c5ccccc5)N(C)C)[nH]4)cc3)cc2)[nH]1)C(C)C` [Compound 983], the EC50 is below 1 nM.

On to `C[C@@H](NC(=O)[C@@H]1CCCN1C(=O)[C@H](NC(=O)C1CC1)c1ccccc1)c1ccc(C#Cc2cnc([C@@H]3CCCN3C(=O)[C@H](NC(=O)C3CC3)c3ccccc3)[nH]2)cc1` [Compound 135], for which the EC50 was above 1000 nM.

For `CN1CCN(C(=O)N[C@@H](C(=O)N2CCC[C@H]2c2ncc(C#Cc3ccc(C#Cc4cnc([C@@H]5CCCN5C(=O)[C@H](NC(=O)N5CCN(C)CC5)c5ccccc5)[nH]4)cc3)[nH]2)c2ccccc2)CC1` [Compound 310], the EC50 is 1 to 9.9 nM.

In the case of `COC(=O)N1CCC[C@H]1C(=O)N1CCC[C@H]1c1ncc(-c2ccc(C#Cc3ccc4nc([C@@H]5CCCN5C(=O)[C@@H]5CCCN5C(=O)OC)[nH]c4c3)cc2)[nH]1` [Compound 1063], the EC50 lay in the range of 10 to 999 nM.

For the compound `COC(=O)N[C@@H](C(=O)N1CCC[C@H]1c1ncc(C#Cc2ccc(-c3ccc(-c4cnc([C@@H]5CCCN5C(=O)[C@H](NC(=O)OC)c5ccccc5)[nH]4)cc3)cc2)[nH]1)c1ccccc1` [Compound 750], the EC50 is below 1 nM.

On to `CC(C)[C@@H](NC(=O)OC(C)(C)C)C(=O)N1CCC[C@H]1C(=O)NCc1ccc(C#Cc2cnc([C@@H]3CCCN3C(=O)[C@H](NC(=O)OC(C)(C)C)C(C)C)[nH]2)cc1` [Compound 120], for which the EC50 was 10 to 999 nM.

Take `COC(=O)N[C@@H](C(=O)N1CCC[C@H]1c1ncc(-c2ccc(C#Cc3ccc(-c4cnc([C@@H]5CCCN5C(=O)[C@H](NC(=O)N5CCC(O)CC5)c5ccccc5)[nH]4)cc3)cc2)[nH]1)c1ccccc1` [Compound 241]: the EC50 was below 1 nM.

`O=C(N[C@@H](C(=O)N1CCC[C@H]1c1ncc(C#Cc2ccc(-c3cnc([C@@H]4CCCN4C(=O)[C@H](NC(=O)N4CCOCC4)c4ccccc4)[nH]3)cc2)[nH]1)c1ccccc1)N1CCOCC1` [Compound 102]: the EC50 was 1 to 9.9 nM.

For the compound `CN1CCN(C(=O)N[C@@H](C(=O)N2CCC[C@H]2c2cc(-c3ccc(C#Cc4ccc(-c5cnc([C@@H]6CCCN6C(=O)[C@H](NC(=O)N6CCN(C)CC6)c6ccccc6)[nH]5)cc4)cc3)n[nH]2)c2ccccc2)CC1` [Compound 213], the EC50 was below 1 nM.

For the compound `COC(=O)N[C@@H](C(=O)N1CCC[C@H]1c1ncc(C#Cc2ccc(-c3ccc(-c4cnc([C@@H]5CCCN5C(=O)[C@@H](c5ccccc5)N5CCCC5)[nH]4)cc3)cc2)[nH]1)c1ccccc1` [Compound 759], the EC50 is below 1 nM.

`COC(=O)N[C@@H](C(=O)N1CCC[C@H]1c1ncc(-c2ccc(C#Cc3ccc(-c4cnc([C@@H]5CCCN5C(=O)[C@H](NC(=O)N5CCC[C@H]5C)c5ccccc5)[nH]4)cc3)cc2)[nH]1)c1ccccc1` [Compound 262]: the EC50 was below 1 nM.

On to `COC(=O)N[C@H](C(=O)N1CCC[C@H]1c1ncc(-c2ccc(C#Cc3ccc(-c4cnc([C@@H]5CCCN5C(=O)[C@@H](c5ccccc5)N5CCOC5=O)[nH]4)cc3)cc2)[nH]1)C(C)C` [Compound 1007], for which the EC50 was below 1 nM.

Regarding `O=C(N[C@@H](C(=O)N1CCC[C@H]1c1ncc(C#Cc2ccc(-c3cnc([C@@H]4CCCN4C(=O)[C@H](NC(=O)C4CC4)c4ccccc4)[nH]3)cc2)[nH]1)c1ccccc1)C1CC1` [Compound 100], the EC50 is below 1 nM.

Turning to `COC(=O)N[C@H](C(=O)N1CCC[C@H]1c1ncc(-c2ccc(C#Cc3ccc4nc([C@@H]5CCCN5C(=O)[C@@H](NC(=O)OC)C5CCOCC5)[nH]c4c3)cc2F)[nH]1)C1CCOCC1` [Compound 1070], the EC50 was below 1 nM.

In the case of `COC(=O)N[C@@H](C(=O)N1CCC[C@H]1c1ncc(-c2ccc(C#Cc3ccc(-c4cnc([C@@H]5CCCN5C(=O)[C@H](NC(=O)OC)c5ccccc5)[nH]4)cn3)cc2)[nH]1)c1ccccc1` [Compound 1010], the EC50 is below 1 nM.

Regarding `COC(=O)N[C@@H](C(=O)N1CCC[C@H]1c1ncc(C#Cc2ccc(-c3ccc(-c4cnc([C@@H]5CCCN5C(=O)[C@H](NC(=O)OC(C)(C)C)c5ccccc5)[nH]4)cc3)cc2)[nH]1)c1ccccc1` [Compound 753], the EC50 was below 1 nM.

In the case of `O=C(N[C@@H](C(=O)N1CCC[C@H]1c1ncc(-c2ccc(C#Cc3ccc(-c4cnc([C@@H]5CCCN5C(=O)[C@@H](c5ccccc5)N5CCCCC5)[nH]4)cc3)cc2)[nH]1)c1ccccc1)N1CCOCC1` [Compound 209], the EC50 is below 1 nM.

Take `COC(=O)N[C@H](C(=O)N1CCC[C@H]1c1ncc(-c2ccc(C#Cc3ccc4nc([C@@H]5CCCN5C(=O)[C@@H](NC(=O)OC)C5CCCC5)[nH]c4c3)cc2)[nH]1)C1CCCC1` [Compound 1025]: the EC50 is below 1 nM.

For `O=C(N[C@@H](C(=O)N1CCC[C@H]1c1ncc(-c2ccc(C#Cc3ccc(-c4cnc([C@@H]5CCCN5C(=O)[C@@H](c5ccccc5)N5CCOCC5)[nH]4)cc3)cc2)[nH]1)c1ccccc1)C1CC1` [Compound 237], the EC50 is below 1 nM.

On to `COC(=O)N[C@@H](C(=O)N1CCC[C@H]1c1ncc(-c2ccc(C#Cc3ccc(-c4cnc([C@@H]5CCCN5C(=O)[C@H](NC(=O)C5(O)CC5)c5ccccc5)[nH]4)cc3)cc2)[nH]1)c1ccccc1` [Compound 277], for which the EC50 was below 1 nM.

For the compound `CN(C)C(=O)N[C@@H](C(=O)N1CCC[C@H]1c1ncc(C#Cc2ccc(C#Cc3cnc([C@@H]4CCCN4C(=O)[C@H](NC(=O)N(C)C)c4ccccc4)[nH]3)cc2)[nH]1)c1ccccc1` [Compound 308], the EC50 was below 1 nM.

In the case of `COC(=O)N[C@H](C(=O)N1CCC[C@H]1c1nc2ccc(-c3ccc(C#Cc4cnc([C@@H]5CCCN5C(=O)[C@H](NC(=O)OC)c5ccccc5)[nH]4)cc3)cc2[nH]1)C(C)C` [Compound 1085], the EC50 was below 1 nM.

Regarding `COC(=O)N[C@@H](C(=O)N1CCC[C@H]1c1ncc(-c2ccc(C#Cc3ccc(-c4cnc([C@@H]5CCCN5C(=O)[C@@H](c5ccccc5)N5CCCC5)[nH]4)cc3)cc2)[nH]1)c1ccccc1` [Compound 178], the EC50 is below 1 nM.

Consider `CC(C)(C)OC(=O)N[C@@H](C(=O)N1CCC[C@H]1c1ncc(C#Cc2ccc(C#Cc3cnc([C@@H]4CCCN4C(=O)[C@H](NC(=O)OC(C)(C)C)c4ccccc4)[nH]3)cc2)[nH]1)c1ccccc1` [Compound 300], for which the EC50 is below 1 nM.

As for `COC(=O)N[C@@H](C)C(=O)N1CCC[C@H]1c1ncc(-c2ccc(C#Cc3ccc(-c4cnc([C@@H]5CCCN5C(=O)[C@H](C)NC(=O)OC)[nH]4)cc3)cc2)[nH]1` [Compound 962], the EC50 was below 1 nM.

Consider `COC(=O)N[C@@H](C(=O)N1CCC[C@H]1c1ncc(-c2ccc(C#Cc3ccc(-c4cnc([C@@H]5CCCN5C(=O)[C@H](NC(=O)N5CC[C@@H](OC)C5)c5ccccc5)[nH]4)cc3)cc2)[nH]1)c1ccccc1` [Compound 271], for which the EC50 was below 1 nM.

For `CC(C)(C)OC(=O)NCC(=O)N1CCC[C@H]1c1ncc(C#Cc2ccc(-c3cnc([C@@H]4CCCN4C(=O)CNC(=O)OC(C)(C)C)[nH]3)cc2)[nH]1` [Compound 103], the EC50 fell in the range of 10 to 999 nM.

`C[C@@H](NC(=O)OC(C)(C)C)C(=O)N1CCC[C@H]1c1ncc(C#Cc2ccc(-c3cnc([C@@H]4CCCN4C(=O)[C@@H](C)NC(=O)OC(C)(C)C)[nH]3)cc2)[nH]1` [Compound 104]: the EC50 lay in the range of 1 to 9.9 nM.

As to `O=C(NCC(=O)N1CCC[C@H]1c1ncc(C#Cc2ccc(-c3cnc([C@@H]4CCCN4C(=O)CNC(=O)C4CC4)[nH]3)cc2)[nH]1)C1CC1` [Compound 113], the EC50 fell in the range of 10 to 999 nM.

Take `COC(=O)N[C@H](C(=O)N1CCC[C@H]1c1ncc(-c2ccc(C#Cc3ccc(-c4cnc([C@@H]5CCCN5C(=O)[C@@H](NC(=O)OC)C5CCOCC5)[nH]4)c(F)c3)cc2)[nH]1)C1CCOCC1` [Compound 1012]: the EC50 was below 1 nM.

For `CC(C)[C@H](NC(=O)N1CCCC1)C(=O)N1CCC[C@H]1c1ncc(-c2ccc(C#Cc3ccc(-c4cnc([C@@H]5CCCN5C(=O)[C@@H](NC(=O)N5CCCC5)C(C)C)[nH]4)cc3)cc2)[nH]1` [Compound 288], the EC50 was above 1000 nM.

For `COC(=O)N[C@H](C(=O)N1CCC[C@H]1c1ncc(-c2ccc(C#Cc3ccc4nc([C@@H]5CCCN5C(=O)[C@H](NC(=O)OC)c5ccccc5)[nH]c4c3)cc2)[nH]1)C(C)C` [Compound 1023], the EC50 is below 1 nM.

For the compound `O=C(N[C@@H](C(=O)N1CCC[C@H]1c1cc(-c2ccc(C#Cc3ccc(-c4cnc([C@@H]5CCCN5C(=O)[C@H](NC(=O)N5CCOCC5)c5ccccc5)[nH]4)cc3)cc2)n[nH]1)c1ccccc1)N1CCOCC1` [Compound 220], the EC50 was below 1 nM.

As to `COC(=O)N[C@H](C(=O)N1CCC[C@H]1c1nc2c([nH]1)-c1ccc(C#Cc3ccc(-c4cnc([C@@H]5CCCN5C(=O)[C@@H](NC(=O)OC)C5CCOCC5)[nH]4)cc3)cc1CCC2)C(C)C` [Compound 1097], the EC50 was below 1 nM.

As for `CN(C)[C@@H](C(=O)N1CCC[C@H]1c1ncc(C#Cc2ccc(-c3cnc([C@@H]4CCCN4C(=O)[C@H](NC(=O)C4CC4)c4ccccc4)[nH]3)cc2)[nH]1)c1ccccc1` [Compound 133], the EC50 was below 1 nM.

With `CC(C)[C@@H](NC(=O)OC(C)(C)C)C(=O)N1CCC[C@H]1C(=O)NCCc1ccc(C#Cc2cnc([C@@H]3CCCN3C(=O)[C@H](NC(=O)OC(C)(C)C)C(C)C)[nH]2)cc1` [Compound 126], the EC50 was in the range of 10 to 999 nM.

Turning to `COCCOc1c(C#Cc2ccc3nc([C@@H]4CCCN4C(=O)[C@@H](NC(=O)OC)C(C)C)[nH]c3c2)ccc(-c2cnc([C@@H]3CCCN3C(=O)[C@H](NC(=O)OC)C(C)C)[nH]2)c1OCCOC` [Compound 1066], the EC50 is below 1 nM.

With `C[C@@H](NC(=O)C1CC1)C(=O)N1CCC[C@H]1c1ncc(C#Cc2ccc(-c3cnc([C@@H]4CCCN4C(=O)[C@@H](C)NC(=O)C4CC4)[nH]3)cc2)[nH]1` [Compound 111], the EC50 was 1 to 9.9 nM.

(Values after patent US8865756B2, “Inhibitors of HCV NS5A” (Presidio Pharmaceuticals, Inc., priority 2008, dated 2014).)
